Our source for the TGI and GI50 values is PubChem BioAssay (NCI).

Where “and” joins values, the source holds several entries; their conditions need not be identical. Identical values can stand only once.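 Protocol summary: plate cells (96-well), add compound at 5 concentrations, incubate 48 h, interpolate endpoints linearly. GI50: concentration for 50% inhibition of growth. TGI: total growth inhibition.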

Test systems include A498 renal; HS 578T breast; RPMI-8226 leukemia; OVCAR-5 ovarian; OVCAR-8 ovarian; CCRF-CEM leukemia; SNB-75 CNS; NCI-H226 lung; K-562 leukemia; PC-3 prostate.
Common to all, as to experiment: inhibition of tumour cell growth, NCI panel, 48 h

For the compound `N[C@H]1CCCC[C@@H]1N1C(=O)c2ccccc2C1(O)c1ccc(Cl)cc1` (some centres not stated), the TGI in the experiment with A498 renal stood at 28.1 µM; in the experiment with HS 578T breast it was 54.4 µM; with RPMI-8226 leukemia it was 13.6 µM; with OVCAR-5 ovarian, 28.6 µM; with OVCAR-8 ovarian it was 32.4 µM; with CCRF-CEM leukemia it was 16.7 µM. Besides, the TGI with SNB-75 CNS is 7.98 µM; with NCI-H226 lung, 31.3 µM; with K-562 leukemia, 13.2 µM; in the experiment with PC-3 prostate it was 24.4 µM.
For `C=C1C2C[C@@H]3O[C@H]4C[C@H]5O[C@@]6(C[C@@H]7O[C@]8(C[C@H](C)[C@@H]9O[C@@H]%10CC(CO)O[C@@H]%10C[C@@H]9O8)C[C@H](C)[C@@H]7O6)C[C@H]5O[C@H]4[C@H](C)[C@H]3OC(=O)C[C@H]3CC[C@@H]4OC5[C@H]6O[C@]7(CC[C@H]8CC(=C)[C@H](CC[C@@H](C[C@H]1C)O2)O8)CC6O[C@@H]5[C@@H](O7)[C@H]4O3` (some centres not stated), the TGI with A498 renal was more than 1 µM; in the experiment with HS 578T breast, less than 0.0001 µM; with RPMI-8226 leukemia it was more than 1 µM; in the experiment on OVCAR-5 ovarian, more than 1 µM; with OVCAR-8 ovarian it was 0.00513 µM; with CCRF-CEM leukemia it was more than 1 µM. Further, the TGI is more than 1 µM with SNB-75 CNS, 0.00022 µM in the experiment with NCI-H226 lung, more than 1 µM in the experiment with K-562 leukemia and more than 1 µM with PC-3 prostate.
On to `COC(=O)C1OC(O[C@H]2CC[C@]3(C)[C@H]4CC=C5[C@@H]6CC(C)(C)CC[C@]6(C(=O)OC6OCC(O)C(O)C6OC6OC(C)C(OC7OCC(O)C(O)C7O)C(O)C6O)CC[C@@]5(C)[C@]4(C)CC[C@H]3C2(C)C)C(O)C(O)C1O` (some centres not stated), for which the GI50 in the experiment with A498 renal is 7.25 µM and 20.7 µM. The TGI is 20 µM and 35.3 µM in the experiment on A498 renal; 39.4 µM and 35.9 µM in the experiment on HS 578T breast; > 100 µM and 42 µM with RPMI-8226 leukemia; 31.4 µM and 42.8 µM with OVCAR-5 ovarian; 40.7 µM and 42.8 µM in the experiment on OVCAR-8 ovarian; 53.5 µM and 47.2 µM with CCRF-CEM leukemia. Also, the TGI in the experiment with SNB-75 CNS was 30 µM and 30.4 µM; with NCI-H226 lung, 37.7 µM and 37.2 µM; in the experiment with K-562 leukemia, 64.6 µM and 62.2 µM; in the experiment on PC-3 prostate, 27.6 µM and 29.5 µM.
Turning to `COC(=O)c1ccccc1C1CN=NC12Cc1cc(C)ccc1C2=O` (configuration not stated), the TGI in the experiment with A498 renal, in the experiment on HS 578T breast, in the experiment with RPMI-8226 leukemia, in the experiment on OVCAR-5 ovarian, in the experiment with OVCAR-8 ovarian and in the experiment on CCRF-CEM leukemia was more than 100 µM in each case. The TGI in the experiment on SNB-75 CNS, with NCI-H226 lung, with K-562 leukemia and with PC-3 prostate was more than 100 µM throughout.
Regarding `O=C(O)CN1C(=O)C(Cc2ccc(O)cc2)N=C(c2cccc(O)c2)c2ccccc21` (configuration not stated), the TGI with A498 renal was 25.3 µM; with HS 578T breast, more than 100 µM; in the experiment on RPMI-8226 leukemia it was more than 100 µM; in the experiment on OVCAR-5 ovarian, more than 100 µM; in the experiment with OVCAR-8 ovarian, more than 100 µM; with SNB-75 CNS, more than 100 µM. In addition, the TGI with NCI-H226 lung, in the experiment on K-562 leukemia and in the experiment with PC-3 prostate was more than 100 µM in each case.
Turning to `Cn1c2ccccc2c(=O)c2cccc(C(=O)NC(CCC(N)=O)C(=O)O)c21` (configuration not stated), the TGI with A498 renal, in the experiment on HS 578T breast, in the experiment with RPMI-8226 leukemia, in the experiment on OVCAR-5 ovarian, in the experiment on OVCAR-8 ovarian and in the experiment on SNB-75 CNS was more than 100 µM throughout. Moreover, the TGI in the experiment with NCI-H226 lung, with K-562 leukemia and with PC-3 prostate was more than 100 µM each time.
For the compound `OC(c1cc(C23CC4CC(CC(C4)C2)C3)nc2c(Cl)cc(Cl)cc12)C1CCCCN1` (configuration not stated), the TGI with A498 renal was 3.05 µM; in the experiment on HS 578T breast it was 3.89 µM; in the experiment with OVCAR-5 ovarian it was 3.17 µM; in the experiment with OVCAR-8 ovarian, 3.18 µM; with SNB-75 CNS, 2.96 µM; with NCI-H226 lung, 3.77 µM. The TGI stood at 3.07 µM in the experiment with K-562 leukemia and 3.09 µM with PC-3 prostate.
In the case of `Cc1cn(CC2=NCC(C)N2)c(=O)[nH]c1=O` (configuration not stated), the TGI in the experiment on A498 renal, in the experiment with HS 578T breast, in the experiment on RPMI-8226 leukemia, with OVCAR-5 ovarian, with OVCAR-8 ovarian and in the experiment with SNB-75 CNS was more than 100 µM throughout. The TGI with NCI-H226 lung, with K-562 leukemia and in the experiment on PC-3 prostate was more than 100 µM each time.
On to `COc1cc(/C=c2\sc3n(c2=O)C(c2ccc(Cl)cc2)C2=C(CCCC2C)N=3)cc(OC)c1OC` (configuration not stated), for which the TGI in the experiment on A498 renal, in the experiment on HS 578T breast, with RPMI-8226 leukemia, in the experiment with OVCAR-5 ovarian, in the experiment with OVCAR-8 ovarian and in the experiment with CCRF-CEM leukemia was more than 100 µM throughout. The TGI with SNB-75 CNS, in the experiment on K-562 leukemia and with PC-3 prostate was more than 100 µM throughout.
With `Cc1ccc2c(c1)-c1nc(N)c(C#N)c(-c3ccccc3)c1CCS2(=O)=O`, the TGI is 98.9 µM with A498 renal; 68.1 µM in the experiment with HS 578T breast; more than 100 µM with RPMI-8226 leukemia; more than 100 µM in the experiment on OVCAR-5 ovarian; 56.5 µM in the experiment with OVCAR-8 ovarian; 81.8 µM in the experiment on SNB-75 CNS. For the same compound, the TGI was 78.5 µM in the experiment on NCI-H226 lung, more than 100 µM in the experiment on K-562 leukemia and more than 100 µM in the experiment on PC-3 prostate.
As to `O=c1/c(=C/c2ccc(-c3ccc(Cl)cc3Cl)o2)sc2n1[C@@H](c1ccc(Cl)cc1)C=C(c1cc(F)c(Cl)cc1Cl)N=2`, the TGI was 4.71 µM with A498 renal; more than 100 µM in the experiment on HS 578T breast; more than 100 µM with RPMI-8226 leukemia; more than 100 µM in the experiment on OVCAR-5 ovarian; more than 100 µM with OVCAR-8 ovarian; more than 100 µM with SNB-75 CNS. The TGI with NCI-H226 lung, in the experiment on K-562 leukemia and in the experiment with PC-3 prostate was more than 100 µM in each case.
Take `N#Cc1ccc(-n2c3ccccc3c3ccc4c(c32)C(=O)C=CC4=O)cc1`: the TGI in the experiment with A498 renal was 11 µM; with HS 578T breast, 39.3 µM; in the experiment on RPMI-8226 leukemia, more than 100 µM; with OVCAR-5 ovarian, 34.8 µM; in the experiment on OVCAR-8 ovarian, more than 58.7 µM; in the experiment on SNB-75 CNS, more than 53.3 µM. Moreover, the TGI is more than 74.5 µM with NCI-H226 lung, more than 100 µM in the experiment with K-562 leukemia and 8.98 µM with PC-3 prostate.
